Literature values as cited in paper PMC12435690, “KYLO-0603, a novel liver-targeting, thyroid hormone receptor-β agonist for the inhibition of MASH progression” (PLOS One, 2025).
Values joined by “and” are separate entries in the source; they are usually repeats but may differ in a detail not shown here. Identical values can stand only once.

Test system: THR-β over THR-α
Design: method as in PMID 38771485, PMID 33306682, PMID 9653548, PMID 32098589
Details: in vitro THR competition assays ref [28],[47],[48],[49]; cited from earlier work

Question: For CC(C)c1cc(Oc2c(Cl)cc(-n3nc(C#N)c(=O)[nH]c3=O)cc2Cl)n[nH]c1=O [Resmetirom], which “selectivity ratio for THR-β over THR-α” value is on record?
Answer: The value was 12 and 17.
